Blank lines part the entries; values can stand above or below the molecule they belong to. Residues, ends and D or L forms follow the SMILES beside them. *: point of attachment. Cbz = O=C(OCc1ccccc1)*
How the values were obtained:
[1] = test system: T1, menin protein levels in VCaP cells; experiment: Western blot of menin protein level; type: cell-based, human
T1 construct: endogenous in cells; host or cells: VCaP

[2] = test system: Jurkat cells; experiment: Proliferation inhibition, Jurkat; type: cell-based; details: Homo sapiens, read-out: Potency IC50 Jurkat
[3] = Metabolic stability in rat hepatocytes; type: in vitro ADME; details: in vitro maximal bioavailability
Description: Liver cells were distributed at a density of 1.0 × 10^6 cells/mL and treated with 1 µM BAY-155 or MI-503. During incubation, the hepatocyte suspensions were continuously shaken, and aliquots were taken at 2, 8, 16, 30, 45, and 90 min, fixed with cold methanol and stored at −20 °C. Next, samples were centrifuged and the supernatant was analyzed with an LC-MS/MS. The compound half-life was determined from the concentration–time plot. The intrinsic clearances were calculated from the half-life, together with additional parameters (liver blood flow, quantity of liver cells in vivo and in vitro).

[4] = molecular target: T2, menin (Homo sapiens, UniProt O00255); experiment: Isothermal Titration Calorimetry (ITC) on purified menin; type: binding; details: ITC, 25 °C, menin 1-615; read-out: KD
T2 construct: purified menin (1–615 with GST-tag cleaved as described above); GST (TEV cleavable) (N, cleaved yes); made in house; host or cells: E. coli BL21 (DE3)
T2 sequence (O00255 1-615 isoform O00255-1): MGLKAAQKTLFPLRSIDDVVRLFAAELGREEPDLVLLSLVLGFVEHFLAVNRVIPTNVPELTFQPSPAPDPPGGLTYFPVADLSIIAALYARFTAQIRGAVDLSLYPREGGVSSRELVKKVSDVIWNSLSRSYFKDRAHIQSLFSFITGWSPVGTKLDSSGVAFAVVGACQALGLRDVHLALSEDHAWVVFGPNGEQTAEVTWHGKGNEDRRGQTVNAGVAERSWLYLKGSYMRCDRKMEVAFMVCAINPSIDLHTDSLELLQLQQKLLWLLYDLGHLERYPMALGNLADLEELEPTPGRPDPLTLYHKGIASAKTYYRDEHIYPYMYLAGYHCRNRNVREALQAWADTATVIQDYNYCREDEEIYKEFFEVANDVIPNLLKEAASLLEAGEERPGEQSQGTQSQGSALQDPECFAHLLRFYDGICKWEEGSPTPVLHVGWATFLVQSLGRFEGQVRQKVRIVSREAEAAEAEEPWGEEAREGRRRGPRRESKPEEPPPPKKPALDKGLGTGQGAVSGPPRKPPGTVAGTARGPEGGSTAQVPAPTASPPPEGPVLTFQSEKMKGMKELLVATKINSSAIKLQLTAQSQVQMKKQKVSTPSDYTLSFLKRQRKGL
Description: Cloning of expression vectors for recombinant menin was performed as follows. […] Proteins were expressed in E. coli BL21 (DE3) following 0.1 mM IPTG induction at 17 °C overnight. For purification, cell pellets were resuspended in buffer A (50 mM Tris pH 7.5, 300 mM NaCl, 2 mM DTT). Cells were lysed using a high pressure Microfluidics apparatus and the cell debris pelleted by centrifugation. The supernatant was applied to a GST column (GE Healthcare, Chicago, IL, USA), washed with two column volumes of washing buffer A and eluted with Buffer B (Buffer A plus 15 mM reduced glutathione). If necessary, the purification tag was cleaved off with the addition of His-TEV protease (1:20 mass ratio) during overnight incubation in buffer A. His-TEV was removed by IMAC column rebinding and final protein purification of either GST-cleaved or uncleaved menin-1 was performed by size exclusion chromatography using a HiLoad 16/60 Superdex 200 (GE Healthcare) column in buffer C (Buffer A but 50 mM NACl).
The compound was dissolved in 100% DMSO to a concentration of 10 mM and subsequently diluted to a final concentration of 5 µM in ITC Buffer. Isothermal Titration Calorimetry (ITC) was performed at 25 °C in a Microcal PEAQ-ITC (Malvern Panalytical). […] Reference Power was set to 6 μcal/s. Data were collected on high feedback mode. Analysis was performed with a single binding site model in the Microcal PEAQ-ITC Analysis Software (Malvern Panalytical).

[5] = molecular target: CYP 3A4 (Homo sapiens, UniProt P08684); experiment: CYP inhibition 3A4; type: in vitro ADME
Chain of CYP 3A4 (P08684 whole entry): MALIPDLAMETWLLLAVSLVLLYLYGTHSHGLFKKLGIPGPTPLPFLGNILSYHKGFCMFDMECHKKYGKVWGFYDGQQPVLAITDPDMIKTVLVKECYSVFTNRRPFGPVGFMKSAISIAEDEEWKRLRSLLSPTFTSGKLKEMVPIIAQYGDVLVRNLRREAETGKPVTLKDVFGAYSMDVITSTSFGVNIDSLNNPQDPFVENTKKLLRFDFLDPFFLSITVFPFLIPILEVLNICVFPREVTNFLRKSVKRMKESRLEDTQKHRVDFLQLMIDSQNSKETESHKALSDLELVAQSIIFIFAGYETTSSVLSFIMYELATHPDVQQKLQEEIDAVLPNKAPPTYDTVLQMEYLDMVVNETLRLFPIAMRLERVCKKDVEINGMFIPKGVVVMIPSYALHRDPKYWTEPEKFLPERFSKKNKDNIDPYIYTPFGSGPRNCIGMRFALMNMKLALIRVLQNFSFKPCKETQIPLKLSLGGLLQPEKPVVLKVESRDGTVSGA

[6] = test system: safety pharmacology relevant proteins (GPCRs, ion channels and transporters); experiment: Selectivity panel of safety pharmacology assays; details: 10 µM
[7] = molecular target: CYP 2C8 (Homo sapiens, UniProt P10632); experiment: CYP inhibition 2C8; type: in vitro ADME
Chain of CYP 2C8 (P10632 whole entry): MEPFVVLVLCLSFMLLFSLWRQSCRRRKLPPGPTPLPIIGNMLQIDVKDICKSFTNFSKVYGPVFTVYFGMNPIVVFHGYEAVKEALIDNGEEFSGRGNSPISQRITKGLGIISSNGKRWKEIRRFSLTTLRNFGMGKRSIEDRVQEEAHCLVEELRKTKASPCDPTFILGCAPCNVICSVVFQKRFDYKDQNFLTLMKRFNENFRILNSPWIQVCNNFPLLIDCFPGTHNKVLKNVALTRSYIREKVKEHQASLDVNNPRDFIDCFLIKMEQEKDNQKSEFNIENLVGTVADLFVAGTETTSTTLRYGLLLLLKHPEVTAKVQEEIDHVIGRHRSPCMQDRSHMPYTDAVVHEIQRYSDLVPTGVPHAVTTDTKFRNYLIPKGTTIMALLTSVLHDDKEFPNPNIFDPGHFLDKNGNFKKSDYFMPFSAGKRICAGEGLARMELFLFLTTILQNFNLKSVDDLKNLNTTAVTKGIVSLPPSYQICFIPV

[8] = molecular target: CYP 2C9 (Homo sapiens, UniProt P11712); experiment: CYP inhibition 2C9; type: in vitro ADME
Chain of CYP 2C9 (P11712 whole entry): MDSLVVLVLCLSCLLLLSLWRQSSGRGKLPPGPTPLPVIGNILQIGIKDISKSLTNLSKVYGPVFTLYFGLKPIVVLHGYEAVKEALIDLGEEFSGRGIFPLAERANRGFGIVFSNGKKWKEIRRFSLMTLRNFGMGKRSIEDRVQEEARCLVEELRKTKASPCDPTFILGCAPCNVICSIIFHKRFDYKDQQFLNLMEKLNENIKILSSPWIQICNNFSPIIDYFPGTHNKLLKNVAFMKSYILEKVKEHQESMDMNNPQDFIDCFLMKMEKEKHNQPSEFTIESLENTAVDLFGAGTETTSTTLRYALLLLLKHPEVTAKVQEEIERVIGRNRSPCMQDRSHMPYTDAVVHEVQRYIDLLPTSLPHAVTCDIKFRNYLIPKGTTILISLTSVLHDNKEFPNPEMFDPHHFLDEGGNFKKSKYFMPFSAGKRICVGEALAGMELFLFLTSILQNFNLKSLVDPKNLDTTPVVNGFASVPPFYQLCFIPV

[9] = molecular target: CYP 1A2 (Homo sapiens, UniProt P05177); experiment: CYP inhibition 1A2; type: in vitro ADME
Chain of CYP 1A2 (P05177 whole entry): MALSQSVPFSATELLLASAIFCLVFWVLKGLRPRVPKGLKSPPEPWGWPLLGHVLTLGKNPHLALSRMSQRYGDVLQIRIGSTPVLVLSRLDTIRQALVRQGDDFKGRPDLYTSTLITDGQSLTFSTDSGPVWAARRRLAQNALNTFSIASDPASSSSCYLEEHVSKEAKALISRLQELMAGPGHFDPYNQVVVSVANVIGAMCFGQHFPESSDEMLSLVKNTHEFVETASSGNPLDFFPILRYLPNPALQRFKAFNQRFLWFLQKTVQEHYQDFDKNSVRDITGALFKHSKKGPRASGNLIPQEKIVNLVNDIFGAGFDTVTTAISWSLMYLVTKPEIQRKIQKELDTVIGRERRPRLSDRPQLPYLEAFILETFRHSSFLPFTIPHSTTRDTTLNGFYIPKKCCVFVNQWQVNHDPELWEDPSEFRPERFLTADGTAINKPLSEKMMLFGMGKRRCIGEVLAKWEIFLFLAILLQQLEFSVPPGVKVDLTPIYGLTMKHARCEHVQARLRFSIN

[10] = test system: HL-60 cells; experiment: Proliferation inhibition, HL-60; type: cell-based; details: Homo sapiens, read-out: Potency IC50 HL-60
[11] = In vivo DMPK in rat
[12] = molecular target: T3, menin-MLL interaction (Homo sapiens, UniProt O00255); experiment: TR-FRET menin-MLL binding assay; details: read-out: Potency IC50 Menin-MLL binding
T3 construct: recombinant full length, His-tagged menin
T3 sequence (O00255 1-610): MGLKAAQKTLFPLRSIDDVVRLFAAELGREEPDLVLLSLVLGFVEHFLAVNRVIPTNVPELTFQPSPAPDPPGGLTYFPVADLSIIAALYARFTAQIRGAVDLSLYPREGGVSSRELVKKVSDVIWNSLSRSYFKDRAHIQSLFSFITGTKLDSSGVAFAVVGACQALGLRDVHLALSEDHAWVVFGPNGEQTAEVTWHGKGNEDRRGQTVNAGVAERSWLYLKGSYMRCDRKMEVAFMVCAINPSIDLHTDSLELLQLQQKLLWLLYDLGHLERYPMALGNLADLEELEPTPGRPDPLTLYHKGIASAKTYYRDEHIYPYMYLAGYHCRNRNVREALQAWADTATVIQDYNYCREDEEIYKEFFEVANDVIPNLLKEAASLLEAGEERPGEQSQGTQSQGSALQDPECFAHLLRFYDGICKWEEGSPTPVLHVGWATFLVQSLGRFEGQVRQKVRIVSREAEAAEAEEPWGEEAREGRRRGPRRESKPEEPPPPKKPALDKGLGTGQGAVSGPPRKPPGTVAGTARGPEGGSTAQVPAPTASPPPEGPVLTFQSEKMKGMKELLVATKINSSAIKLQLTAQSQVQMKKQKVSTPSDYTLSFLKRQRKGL

[13] = test system: MOLM-13 cells; experiment: Proliferation inhibition, MOLM-13; type: cell-based, human; details: Homo sapiens, proliferation, read-out: Potency IC50 MOLM-13
[14] = test system: MV4;11 cells; experiment: Proliferation inhibition, MV4;11; type: cell-based, human; details: Homo sapiens, MV4-11; proliferation; read-out: Potency IC50 MV4;11
[15] = molecular target: CYP 2D6 (Homo sapiens, UniProt P10635); experiment: CYP inhibition 2D6; type: in vitro ADME
Chain of CYP 2D6 (P10635 whole entry): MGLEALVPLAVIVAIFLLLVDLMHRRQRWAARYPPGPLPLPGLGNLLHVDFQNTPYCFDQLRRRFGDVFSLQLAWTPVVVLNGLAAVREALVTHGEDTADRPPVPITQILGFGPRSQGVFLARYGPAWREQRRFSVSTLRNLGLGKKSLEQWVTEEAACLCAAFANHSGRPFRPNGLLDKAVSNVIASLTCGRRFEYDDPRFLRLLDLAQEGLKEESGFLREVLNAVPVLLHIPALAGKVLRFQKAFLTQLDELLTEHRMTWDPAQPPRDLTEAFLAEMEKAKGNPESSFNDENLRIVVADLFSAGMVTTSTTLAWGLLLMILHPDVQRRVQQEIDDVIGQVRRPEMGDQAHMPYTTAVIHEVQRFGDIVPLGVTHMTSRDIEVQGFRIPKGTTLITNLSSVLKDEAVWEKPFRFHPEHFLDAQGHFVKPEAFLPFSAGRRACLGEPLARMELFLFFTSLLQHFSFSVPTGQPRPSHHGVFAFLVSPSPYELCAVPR

[16] = test system: AR signaling pathway genes in VCaP tumor samples; experiment: Ex vivo gene expression in VCaP xenografts; design: species or system mice; details: 52 days of treatment
Description: (§1) Total RNA was isolated using RNeasy-Plus Mini kit (Qiagen, Hilden, Germany). RNA (1 μg) was reverse transcribed using SuperScript III First-Strand Synthesis SuperMix (Life Technologies) and the generated cDNA was analyzed with commercial primers (Supplementary Materials Table S1) by qRT-PCR using TaqMan Fast Advanced Master Mix (Life Technologies). For the RNA-seq study, ZR-75-1, BT474, PANC-1, MiaPaCa-2, 22RV1, JMSU-1, DLD-1, SW1463, LoVo and G401 cells were treated with 5 µM BAY-155 or DMSO for 48 h prior to RNA extraction. After 48 h of 5 µM BAY-155 or DMSO treatment, MCF7, VCaP and LNCaP cells were stimulated for further 12 h with 0.1 nM of E2 (ß-Estradiol) or 1 nM R1881, respectively. MCF7, VCaP and LNCaP cells were cultured in starvation medium (containing 5 µM BAY-155 or DMSO) 6 h before stimulation. RNA was isolated using RNeasy-Plus Mini kit (Qiagen). The purified RNA was used for library preparation (Illumina, San Diego, CA, USA. TruSeq Stranded mRNA Kit) and the generated libraries were sequenced (Illumina, HiSeq2500 HTv4, SR, dual-indexing, 50 cycles).
(§2) Tumors were harvested, dissociated and total RNA was extracted using the TissueLyser (Qiagen, Hilden, Germany) together with RNeasy-Plus Mini kit according to the manufacturer protocol.

[17] = test system: VCaP xenograft; experiment: VCaP xenograft efficacy; type: in vivo, mice
Description: (§3) Tumor cells were injected subcutaneously into the flanks of 6- to 9-week old animals. Efficacy studies in xenograft models were performed at Bayer or EPO GmbH (Berlin-Buch, Germany) using NMRI nu/nu, SCID, BALB/c Nude female mice or SCID male mice (VCaP tumors). All animal studies were conducted in accordance with the animal welfare laws and were approved by the State Office for Health and Social Affairs Berlin (LAGeSo). Experiments were run under the animal license B3600a0007. Compound treatment started at a predefined tumor size or burden or at a predefined day after cell inoculation. BAY-155 was administered orally (p.o.) at various doses and regorafenib, tamoxifen and enzalutamide (resuspended in PEG400/H2O 6/4 or PEG400/EtOH 9/1) were used as control treatment for RKO, MCF7 and VCaP xenografts, respectively. Subcutaneous tumor volumes were determined by caliper measurement.

[18] = test system: RKO xenograft; experiment: RKO xenograft efficacy; type: in vivo, mice
Description: as §3

[19] = test system: ER signaling pathway genes in MCF7 tumor samples; experiment: Ex vivo gene expression in MCF7 xenografts; design: species or system mice; details: 27 days of treatment
Description: as §1, §2

[20] = test system: MCF7 xenograft; experiment: MCF7 xenograft efficacy; type: in vivo, mice
Description: as §3

Structure (SMILES): CC(C)C[C@@H](C=O)NC(=O)[C@H](CC(C)C)NC(=O)[C@H](CC(C)C)NC(=O)OCc1ccccc1 [MG-132] (Cbz-Leu-Leu-Leu-aldehyde)
- rescue of menin protein level under BAY-155 treatment ([1]; MG-132 10 µM with BAY-155 10 µM, 16 h): fully rescued the menin protein level

- IC50 [2]: 568 nM
- hepatocytes Fmax Rat [3]: 48%
- Kd [4]: 94 nM
- IC50 [5]: 1000 nM
- IC50 [7]: 4000 nM
- IC50 [8]: 800 nM
- IC50 [9]: > 10000 nM
- IC50 [10]: 672 nM
- in vivo F Rat ([11]; rat in vivo bioavailability): 2.7%
- clearance ([11]; whole blood, rat in vivo, read-out: in vivo CL blood Rat (converted)): 25 mL/min/kg
- IC50 [12]: 80 nM
- IC50 [13]: 893 nM
- IC50 [14]: 251 nM
- IC50 [15]: 2400 nM
Structure (SMILES): Cc1c(CN2CCC(Nc3ncnc4sc(CC(F)(F)F)cc34)CC2)ccc2c1cc(C#N)n2Cc1cn[nH]c1 [MI-503]
- menin protein levels ([1]; Western blot): reduce menin protein levels in a time- and concentration-dependent manner
- number of tested proteins inhibited by ≥ 50% [6]: 28

Structure (SMILES): CNC(=O)c1ccc(N2C(=S)N(c3ccc(C#N)c(C(F)(F)F)c3)C(=O)C2(C)C)cc1F [enzalutamide, reference compound]
- FKBP5 and TMPRSS2 expression ex vivo [16]: significant reduction
- tumor volume and tumor weight [17]: reduced tumor volume and tumor weight

Structure (SMILES): CNC(=O)c1cc(Oc2ccc(NC(=O)Nc3ccc(Cl)c(C(F)(F)F)c3)c(F)c2)ccn1 [regorafenib, reference compound]
- tumor volume and weight (anti-growth effects) [18]: pronounced reduction of tumor volume and weight

Structure (SMILES): CC/C(=C(\c1ccccc1)c1ccc(OCCN(C)C)cc1)c1ccccc1 [tamoxifen, reference compound]
- EGR3, GREB1 and PGR1 expression ex vivo [19]: significant reduction
- tumor volume and tumor weight [20]: reduced tumor volume and tumor weight

From PMC7016952, “Characterization of the Menin-MLL Interaction as Therapeutic Cancer Target” (Cancers, 2020)
